Several values for one entry are separate records, joined by “and”; a condition that tells them apart may be missing. Identical values can stand only once.
System: sperm-egg fusion
Experiment: sperm-egg fusion inhibition assay
Format: cell-based, guinea pig
Design: inhibits sperm-egg fusion / % Inhibition: concentration or dose not given beside the values
Procedure: The fusion inhibition assay was carried out as follows. Eggs were collected from guinea pig ovaries. The eggs were incubated in tissue culture medium overnight. The zona pellucida was removed with a mixture of proteases. The zona pellucida free eggs were incubated in culture media with peptide at a specified concentration for 30 minutes.
Sperm collected from the epididymis of male guinea pigs was capacitated by incubation and acrosome reacted as described by Fleming and Yanagimachi (Gamete Res. 4: 253-273 (1981)) and added to the eggs and incubated for 15 minutes. The eggs were then transferred to a sperm free culture medium and incubated for an additional 1 hour and 45 minutes. The eggs were then fixed and stained as described by Primakoff et al. (J. Cell. Biol. 104: 141 (1987)). The total number of swollen sperm heads were then counted. Swollen sperm heads are an indication that the sperm and egg have fused.
On the basis of these observations, several indices are calculated. The fertilization index (F.I.) is determined by dividing the total number of swollen heads by the total number of eggs. The fertilization rate (F.R.) is the percentage of eggs fertilized. The percent inhibition is determined by dividing the fertilization index of the experimental peptide by the fertilization index of the control peptide.

Substance: CSTDEC
- F.R. (Table 4, TDE peptides compared with no peptide control): 8% and 11%
- % Inhibition (Table 4, relative to F.I. of no peptide control of the same experiment): 89% and 95%
- % Inhibition (Table 5, relative to F.I. of control peptide GRGES of the same experiment): 90% and 98%
- inhibition of sperm-egg fusion (in words) (compared to no peptide or control peptide): strongly inhibited
- inhibits sperm-egg fusion (when the fertilization index is near the normal level of 1 sperm per egg, compared with no peptide (Table 4)): 89%
